How the values were obtained:
Conditions in all cases: 48 h
[1] = tested on: P12-Ichikawa; experiment: cell viability relative to DMSO control; higher = less cytotoxic
Summary of the method: (§1)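 NOMO1, SEM and P12-Ichikawa leukemia cells spent at least four passages adapting to each medium before use. They were seeded at 500 cells/well (NOMO1, SEM) or 1000 cells/well (P12-Ichikawa) in 5 μl in 1536-well plates and pin-dosed with library compounds in DMSO at 11 threefold steps from 47 μM down to 0.79 nM. After 48 h at 37°C, CellTiter-Glo One luminescence was read. Viability is reported as a percentage of the DMSO wells on each plate, with cell-free wells as background.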

[2] = tested on: SEM cells; experiment: as above
Summary of the method: as §1

[3] = tested on: NOMO1; experiment: as above
Summary of the method: as §1

[4] = tested on: P12-Ichikawa; experiment: AUC of viability dose-response curve (% viability x log10 dose units); higher = less sensitive
Summary of the method: (§2)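 Viability of medium-adapted leukemia cells was measured by CellTiter-Glo One luminescence after 48 h at 37°C with library compounds in DMSO. Doses were 11 threefold steps from 47 μM to 0.79 nM, in 1536-well plates at 500 or 1000 cells/well. Signals were normalised per plate to DMSO and cell-free wells and fitted with a four-parameter log-logistic model on log10 dose. Area under the curve was integrated by trapezoidal rule, with curves exceeding full viability scaled and failed quality-control curves removed.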

[5] = tested on: SEM cells; experiment: as above
Summary of the method: as §2

[6] = tested on: NOMO1; experiment: as above
Summary of the method: as §2

COc1ccc(CC2c3cc(OC)c(OC)cc3CC[N+]2(C)CCC(=O)OCCCCCOC(=O)CC[N+]2(C)CCc3cc(OC)c(OC)cc3C2Cc2ccc(OC)c(OC)c2)cc1OC (stereo unspecified)
cell viability [%]
Conditions	[1]	[2]	[3]
HPLM + 10% dialyzed FBS, 0.000781 µM	86.1	81.2	91
HPLM + 10% dialyzed FBS, 0.00234 µM	86.6	80.8	98.8
HPLM + 10% dialyzed FBS, 0.00702 µM	86.3	92.9	116
HPLM + 10% dialyzed FBS, 0.0211 µM	97.2	98.4	98.5
HPLM + 10% dialyzed FBS, 0.0632 µM	90.5	80.3	109
HPLM + 10% dialyzed FBS, 0.19 µM	96.3	94	98.8
HPLM + 10% dialyzed FBS, 0.569 µM	92	103	93.6
HPLM + 10% dialyzed FBS, 1.71 µM	96.6	101	92.2
HPLM + 10% dialyzed FBS, 5.12 µM	97.8	97.1	77.1
HPLM + 10% dialyzed FBS, 15.4 µM	95.1	22.6	29.9
HPLM + 10% dialyzed FBS, 46.1 µM	86.7	88	7.29
RPMI 5 mM glucose + 10% FBS, 0.000781 µM	82.7	81	77.8
RPMI 5 mM glucose + 10% FBS, 0.00234 µM	86.4	77.6	77.8
RPMI 5 mM glucose + 10% FBS, 0.00702 µM	91.6	94	85.7
RPMI 5 mM glucose + 10% FBS, 0.0211 µM	92.1	78.5	89.3
RPMI 5 mM glucose + 10% FBS, 0.0632 µM	92.4	81.1	98.6
RPMI 5 mM glucose + 10% FBS, 0.19 µM	95.6	99.2	93
RPMI 5 mM glucose + 10% FBS, 0.569 µM	99.3	91.2	85.7
RPMI 5 mM glucose + 10% FBS, 1.71 µM	99.2	102	97.5
RPMI 5 mM glucose + 10% FBS, 5.12 µM	85.3	92.1	87.5
RPMI 5 mM glucose + 10% FBS, 15.4 µM	96.3	13.2	65
RPMI 5 mM glucose + 10% FBS, 46.1 µM	83.7	85.1	8.84
RPMI 5 mM glucose + 10% dialyzed FBS, 0.000781 µM	80.3	75	75.5
RPMI 5 mM glucose + 10% dialyzed FBS, 0.00234 µM	83.5	73.3	87
RPMI 5 mM glucose + 10% dialyzed FBS, 0.00702 µM	87.3	93.8	79.2
RPMI 5 mM glucose + 10% dialyzed FBS, 0.0211 µM	91.4	96	93.3
RPMI 5 mM glucose + 10% dialyzed FBS, 0.0632 µM	93.1	79.9	85.8
RPMI 5 mM glucose + 10% dialyzed FBS, 0.19 µM	96.6	93.8	92
RPMI 5 mM glucose + 10% dialyzed FBS, 0.569 µM	93.2	104	84.6
RPMI 5 mM glucose + 10% dialyzed FBS, 1.71 µM	83.1	103	90
RPMI 5 mM glucose + 10% dialyzed FBS, 5.12 µM	86.2	91.1	70
RPMI 5 mM glucose + 10% dialyzed FBS, 15.4 µM	95.1	22.1	67.5
RPMI 5 mM glucose + 10% dialyzed FBS, 46.1 µM	90.7	80.2	8.69

AUC of viability dose-response curve
Conditions	[4]	[5]	[6]
HPLM + 10% dialyzed FBS	439	412	406
RPMI 5 mM glucose + 10% FBS	437	394	390
RPMI 5 mM glucose + 10% dialyzed FBS	427	401	375

C=C[C@H]1CN2CCC1C[C@@H]2[C@@H](O)c1ccnc2ccccc12 (stereo partly specified)
cell viability [%]
Conditions	[1]	[2]	[3]
HPLM + 10% dialyzed FBS, 0.000781 µM	101	95.4	97
HPLM + 10% dialyzed FBS, 0.00234 µM	99.5	95.7	109
HPLM + 10% dialyzed FBS, 0.00702 µM	95.9	103	105
HPLM + 10% dialyzed FBS, 0.0211 µM	99.6	112	93.7
HPLM + 10% dialyzed FBS, 0.0632 µM	100	98.5	99.7
HPLM + 10% dialyzed FBS, 0.19 µM	92.4	96.1	107
HPLM + 10% dialyzed FBS, 0.569 µM	87.7	91	92.7
HPLM + 10% dialyzed FBS, 1.71 µM	93.6	93.6	97.1
HPLM + 10% dialyzed FBS, 5.12 µM	85.8	85.2	86
HPLM + 10% dialyzed FBS, 15.4 µM	90.7	89.1	93.1
HPLM + 10% dialyzed FBS, 46.1 µM	78.2	72.1	74.9
RPMI 5 mM glucose + 10% FBS, 0.000781 µM	93.8	92	90.3
RPMI 5 mM glucose + 10% FBS, 0.00234 µM	93.4	105	90.6
RPMI 5 mM glucose + 10% FBS, 0.00702 µM	99.5	93.2	94.1
RPMI 5 mM glucose + 10% FBS, 0.0211 µM	94.7	106	85.4
RPMI 5 mM glucose + 10% FBS, 0.0632 µM	103	108	91.4
RPMI 5 mM glucose + 10% FBS, 0.19 µM	90.9	104	91.1
RPMI 5 mM glucose + 10% FBS, 0.569 µM	86.4	100	84.9
RPMI 5 mM glucose + 10% FBS, 1.71 µM	92.3	92.9	86.1
RPMI 5 mM glucose + 10% FBS, 5.12 µM	90.8	73.5	89.9
RPMI 5 mM glucose + 10% FBS, 15.4 µM	83.3	78.1	83.8
RPMI 5 mM glucose + 10% FBS, 46.1 µM	67.8	51.1	85.2
RPMI 5 mM glucose + 10% dialyzed FBS, 0.000781 µM	101	106	101
RPMI 5 mM glucose + 10% dialyzed FBS, 0.00234 µM	89.4	100	114
RPMI 5 mM glucose + 10% dialyzed FBS, 0.00702 µM	91.7	90	96.7
RPMI 5 mM glucose + 10% dialyzed FBS, 0.0211 µM	96.6	106	99.3
RPMI 5 mM glucose + 10% dialyzed FBS, 0.0632 µM	97.2	102	92.6
RPMI 5 mM glucose + 10% dialyzed FBS, 0.19 µM	92.6	103	96
RPMI 5 mM glucose + 10% dialyzed FBS, 0.569 µM	96.5	110	85.2
RPMI 5 mM glucose + 10% dialyzed FBS, 1.71 µM	81.7	94.1	99.1
RPMI 5 mM glucose + 10% dialyzed FBS, 5.12 µM	84.5	87.3	84.1
RPMI 5 mM glucose + 10% dialyzed FBS, 15.4 µM	81.8	86.6	85.4
RPMI 5 mM glucose + 10% dialyzed FBS, 46.1 µM	67.9	64.1	76.8

AUC of viability dose-response curve
Conditions	[4]	[5]	[6]
HPLM + 10% dialyzed FBS	443	448	453
RPMI 5 mM glucose + 10% FBS	436	435	422
RPMI 5 mM glucose + 10% dialyzed FBS	429	451	420
